Tests used:
[1] = test system: BaF3 cells expressing FIG-ROS(L); assay: Cleaved caspase-3 flow cytometry apoptosis assay, BaF3 FIG-ROS(L); format: cell-based; details: FIG. 7; presence of TAE-684
From the text: (§1) The mechanism of death of the BaF3 and Karpas 299 cells was next assessed by measuring the percentage of cleaved-caspase 3 positive cells by flow cytometry assay using cleaved caspase-3 as a marker for apoptosis.

[2] = target: FIG-ROS(L) (Homo sapiens, UniProt P08922); assay: Western blotting, phosphorylation of FIG-ROS(L) in BaF3 cells; format: cell-based
From the text: (§2) All antibodies were from Cell Signaling Technology, Inc. (Danvers, Mass.)
(§3) Since ROS, ALK, LTK, InsR, and IGFIR belong to the same family of tyrosine kinases, they may share similar structure in the kinase domain.

[3] = test system: STAT3, AKT, ERK, Shp2; assay: Western blotting, downstream signaling phosphorylation in BaF3 cells transduced with FLT-3ITD; format: cell-based; details: BaF3 FLT-3ITD
From the text: as §2, §3

[4] = target: T1, FIG-ROS(S) (Homo sapiens, UniProt P08922); assay: Western blotting, phosphorylation of FIG-ROS(S) in BaF3 cells; format: cell-based
T1 construct: expressed in transfected cells; host or cells: BaF3 cells, retroviral transduction
From the text: as §2, §3

[5] = test system: ERK, STAT3; assay: Western blotting, ERK/STAT3 phosphorylation in Karpas 299 cells; format: cell-based
From the text: as §2, §3

[6] = test system: BaF3 expressing FLT3ITD; details: FIG. 6; 0-1000 nM TAE-684, 72 hours
Experimental: (§4) BaF3 and Karpas 299 cells were obtained from DSMZ (Deutsche Sammlung von Mikroorganismen und Zellkulturen GmbH, Germany). BaF3 cells, which need interleukin-3 to survive, were maintained at 37° C. in RPMI-1640 medium (Invitrogen) with 10% fetal bovine serum (FBS) (Sigma) and 1.0 ng/ml murine IL-3 (R&D Systems). Karpas 299 cells (a lymphoma cell line) were grown in RPMI-1640 with 10% FBS.
(§5) BaF3 cells were transduced with retrovirus encoding FIG-ROS(S), FIG-ROS(L), or FLT-3ITD (the Internal tandem duplication mutation in FLT3 causes AML leukemia), and selected for IL3 independent growth. Karpas 299 cells, which express NPM-ALK, was used as a positive control. Retroviruses were generated as previously described (see PCT Publication No. WO 2010/093928, incorporated by reference).
(§6) A MTS assay was performed using the CellTiter 96 Aqueous One Solution Reagent (Promega, Catalog No G3582). […] After 72 hours, 20 μl of the CellTiter 96 Aqueous One Solution Reagent was added into each well of a 96 well assay plate (flat bottom), and then 100 μl of cells grown with or without treatment. Media-only wells were used as controls. The 96 well plate was incubated for 1-4 hours at 37° C., and then viable cells were counted by reading the absorbance at 490 nm using a 96 well plate reader.

[7] = test system: Karpas 299 cells; details: FIG. 6; 0-1000 nM TAE-684, 72 hours
Experimental: as §4, §5, §6

[8] = test system: BaF3 expressing FIG-ROS(S); assay: MTS cell growth assay, BaF3 cells expressing FIG-ROS(S); format: cell-based; details: FIG. 6; 0-1000 nM TAE-684, 72 hours
Experimental: as §4, §5, §6

[9] = test system: BaF3 cells expressing FIG-ROS(S); assay: Cleaved caspase-3 flow cytometry apoptosis assay, BaF3 FIG-ROS(S); format: cell-based; details: FIG. 7; presence of TAE-684
From the text: as §1

[10] = test system: STAT3, AKT, ERK, Shp2; assay: Western blotting, downstream signaling phosphorylation in FIG-ROS(S) and FIG-ROS(L) expressing BaF3 cells; format: cell-based
From the text: as §2, §3

[11] = test system: Karpas 299 cells; assay: Cleaved caspase-3 flow cytometry apoptosis assay, Karpas 299; format: cell-based; details: FIG. 7; presence of TAE-684
From the text: as §1

[12] = test system: BaF3 expressing FIG-ROS(L); assay: MTS cell growth assay, BaF3 cells expressing FIG-ROS(L); format: cell-based; details: FIG. 6; 0-1000 nM TAE-684, 72 hours
Experimental: as §4, §5, §6

[13] = FIG. 8, 0, 10, 50, or 100 nM TAE-684 for three hours
[14] = FIG. 10, 0, 0.1, 0.3, or 1.0 uM crizotinib for three hours

phosphorylation of FIG-ROS(L) [2, 13] | phosphorylation of FIG-ROS(S) [4, 13] | phosphorylation of FIG-ROS(L) [2, 14] | phosphorylation of FIG-ROS(S) [4, 14] | SMILES | mechanism of death (cleaved-caspase 3 positive cells) [1] | phosphorylation of STAT3, AKT, and ERK, and Shp2 [3, 13] | ERK phosphorylation [5, 13] | cellular growth response [6] | cellular growth response [7] | cellular growth response [8] | mechanism of death (cleaved-caspase 3 positive cells) [9] | phosphorylation of STAT3, AKT, and ERK, and Shp2 [10, 13] | mechanism of death (cleaved-caspase 3 positive cells) [11] | cellular growth response [12] | phosphorylation of STAT3 and ERK [3, 14] | STAT3 and ERK phosphorylation [5, 14] | phosphorylation of STAT3 and ERK [10, 14]
inhibited | inhibited | – | – | COc1cc(N2CCC(N3CCN(C)CC3)CC2)ccc1Nc1ncc(Cl)c(Nc2ccccc2S(=O)(=O)C(C)C)n1 [TAE-684] | die by apoptosis | not affected | inhibited | not susceptible | stopped growing | stopped growing | die by apoptosis | inhibited | did not die by apoptosis | stopped growing | – | – | –
– | – | inhibited | inhibited | C[C@@H](Oc1cc(-c2cnn(C3CCNCC3)c2)cnc1N)c1c(Cl)ccc(F)c1Cl [crizotinib] | – | – | – | – | – | – | – | – | – | – | not affected | inhibited | inhibited

— patent US20170275706A1, “ALK AND ROS KINASE IN CANCER” (priority 2010, published 2017)
